Experimental data as given in patent US20080081798A1, “Pharmaceutical combinations for the treatment of head-aches and migraine attacks as well as blisters and packs that contain them” (priority 2006, published 2008).

Test system: patients suffering from migraine (moderate or severe migraine attacks)
Test: Double-blind, randomized, cross-over, placebo-controlled study of rizatriptan and trimebutine for treating migraine
Type: in vivo, human
Procedure: Thirty-two patients (24 women and 8 men, aged between 21 and 61, average=39.7) suffering from migraine according to the criteria of the International Headache Association were randomized to treat 2 consecutive moderate or severe attacks with a tablet of 10 mg of rizatriptan and a capsule of 200 mg of trimebutine and 2 attacks with the same amount of triptan and placebo, and vice-versa. The severity of the attacks, as well as the presence of nauseas and photophobia at the moment of ingesting the drug after 1, 2 and 4 hours were collected.

CN(C)CCc1c[nH]c2ccc(Cn3cncn3)cc12 [rizatriptan]
without pain after 1 hour (share of the 38 attacks without pain) (10 mg rizatriptan tablet with 200 mg trimebutine capsule or placebo, 1 hour, of the 38 attacks, p<0.001): 21.1%
without pain after 2 hours (share of the 67 attacks) (10 mg rizatriptan tablet with 200 mg trimebutine capsule or placebo, 2 hours, of the 67 attacks, p<0.0001): 29.9%
adverse events present (number of attacks treated) (64 attacks treated with each drug regimen): 18 attacks
free from nausea after 1 hour (1 hour, p<0.001): 23.7%
free from photophobia after 1 hour (1 hour, p<0.001): 26.7%
